Data on one molecule can be found in US20130310352A1, “DEXAMETHASONE COMBINATION THERAPY” (priority 2010, published 2013).

Holding throughout (assay type): cell-based, human
Data set [1] relates to MM.1S cells. The experiment in a line: Apoptosis with or without IL-6 addition (positive control). The following applies: 40 μg/ml dexamethasone, rhIL-6. The procedure: IL-6 is an important survival cytokine for MM (Klein B, Zhang X G, Jourdan M, et al. Interleukin-6 is the central tumor growth factor in vitro and in vivo in multiple myeloma. Eur Cytokine Netw. 1990; 1 (4):193-201; Gado K, Domjan G, Hegyesi H, Falus A. Role of INTERLEUKIN-6 in the pathogenesis of multiple myeloma. Cell Biol Int. 2000; 24 (4):195-209). […] For this purpose, different MM cell lines ARP1, MM.1S and MM.1R were cultured with or without recombinant hIL-6 (final concentration […]) and treated with or without 10 μM compound A for 2 days. As a positive control, MM.1S cells were treated with 40 μg/ml of dexamethasone with or without hIL-6 addition for the same period of time.
(§1) MM cell lines ARP1, MM.1S and MM.1R were cultured with 10 μM compound A for 3 days. rhIL-6 were added to final concentration of 5 ng/ml. As a positive control, MM.1S cells were treated with 40 μg/ml dexamethasone in the presence of 5 ng/ml of rhIL6 for the same time. Cells apoptosis rate was measured by annexin V staining. (B). Same MM cells were co-cultured with or without MM BMSC, and treated with 10 μM of compound A for 1 day. As a positive control, MM.1S cells were cocultured with or without BMSC and treated with 40 μg/ml dexamethasone for 1 day. CD138+ MM cells apoptosis rate was measured by Annexin V staining.

In data set [2] the test system is MM.1S cells. Nature of the data set: Apoptosis in coculture with BMSCs (positive control). Particulars: 40 μg/ml dexamethasone, 24 hours, BMSC coculture. Here is the method:
For this purpose, BMSCs isolated from MM patient were cocultured with MM cell lines ARP1, MM.1S and MM.1R. The cells were treated with or without 10 μM of compound A for 24 hours. As a positive control, MM.1S cells were cocultured with or without BMSC and treated with or without 40 μg/ml of dexamethasone for 24 hours. After treatment, the MM cells were identified as CD138+ cells by APC-CD138 staining.
as §1

In data set [3] the test system is MM cells ARP1, MM.1S and MM.1R. Nature of the data set: Low-dose single agents, apoptosis. The following applies: 40 μg/ml dexamethasone alone, 1 day.
Procedure: Compound A-induced cell apoptosis was detected by Annexin V binding assay as previously described (Zheng Y, Cai Z, Wang S, et al. Macrophages are an abundant component of myeloma microenvironment and protect myeloma cells from chemotherapy drug-induced apoptosis. Blood. 2009; 114 (17):3625-3628). Briefly, MM cells were cultured in 24-well plates and treated with 0 to 1 mM final concentrations of compound A for 24 or 72 hours. The cells were washed twice with cold PBS and resuspended in Annexin V binding buffer (Invitrogen). MM cells were stained with FITC-conjugated Annexin V and propidium iodide (PI) for 15 min at room temperature. Apoptotic cells were determined as Annexin V positive cells.
Next, the experiment was extended to other MM cell lines, and they were treated with low compound A (1 μM) and dexamethasone (40 μg/ml).
ARP1 cells were treated with 10 μM compound A (BK), 15 nM melphalan (Me), 40 μg/ml dexamethasone (De), 100 μM lenalidomide (Le), 10 μM Bortizomib (BT), or their combinations for 1 day. The cell apoptosis were measured as described. […] Cell apoptosis was measured. […] Same MM cell lines were treated with compound A for 1 day and cell growth were measured by MTS. […] Cell apoptosis were measured by annexin V staining. […] Cells apoptosis rates were measured by annxin V staining. […]

Structures are written as SMILES.

In the case of `C[C@@H]1C[C@H]2[C@@H]3CCC4=CC(=O)C=C[C@]4(C)[C@@]3(F)[C@@H](O)C[C@]2(C)[C@@]1(O)C(=O)CO` [dexamethasone, (8S,9R,10S,11S,13S,14S,16R,17R)-9-Fluoro-11,17-dihydroxy-17-(2-hydroxyacetyl)-10,13,16-trimethyl-6,7,8,9,10,11,12,13,14,15,16,17-dodecahydro-3H-cyclopenta[a]phenanthren-3-one], the “effect of IL6 addition under dexamethasone treatment” value in the data set on MM.1S cells [1] is “promoted MM.1S cells survival”. In addition, in the data set on MM.1S cells [2], the “effect of BMSCs on dexamethasone induced cell apoptosis” value was “protected MM.1S cells”. For the same molecule, the “cytotoxic effect of low dose alone” value in data set [3] is “only limited cytotoxic effect”.
